# Reference: US11000033B2, “Ketone or oxime compound, and herbicide” (NISSAN CHEMICAL CORPORATION, priority 2014, dated 2021)
# Key:
# Type in all cases: in vivo
# Monochoria vaginalis [1] = assay: Test Example 2: herbicidal activity, application during weed generation in submerged conditions (symbol C); settings: Table 23, grade 0-5 by criteria of Test Example 1
# Procedure, shortened: (§1)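 Flooded-soil post-emergence test: emulsion of compound, water-diluted to target rate, applied to paddy water surface at 1–2 leaf stage of mixed-sown weeds (alluvial soil, 4 cm water, 25–30° C. greenhouse); visual rating 3 weeks after application.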
# beet [2] = assay: Test Example 5: effect on crop by foliage application, plastic box (symbol f); settings: 3 weeks after application
# Procedure, shortened: (§2)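 Diluvial soil, sterilized and boxed (21 × 13 × 7 cm), received spot-sown seed covered by about 1.5 cm soil; plants were then greenhouse-grown at 25–30° C.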
# wheat = assay: Test Example 4: effect on crop by soil treatment (symbol e)
# Procedure, shortened: (§3)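 Soil-treatment setup: crop and weed seeds were spot-sown into sterilized diluvial soil, then buried beneath approximately 1.5 cm of it, and the boxes were housed in a 25–30° C. greenhouse.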
# Alopecurus myosuroides = assay: Test Example 5: herbicidal effect by foliage application, plastic box (symbol J); settings: 3 weeks after application
# Procedure, shortened: (§4)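 Leaf-applied emulsion, water-diluted to a preset herbicide dose, on two-week-old seedlings raised in a 25° C. to 30° C. greenhouse; injury rated at 3 weeks using earlier criteria.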
# [3] = tested on: Echinochloa oryzacola Vasing.; assay: Test Example 2: herbicidal activity, application during weed generation in submerged conditions (symbol A); settings: Table 23, grade 0-5 by criteria of Test Example 1
# Procedure, shortened: as §1
# rice plant = assay: Test Example 5: effect on crop by foliage application, plastic box (symbol b); settings: 3 weeks after application
# Procedure, shortened: as §2
# Lolium multiflorum Lam. = assay: Test Example 5: herbicidal effect by foliage application, plastic box (symbol K); settings: 3 weeks after application
# Procedure, shortened: as §4
# Abutilon theophrasti = assay: Test Example 4: herbicidal effect by soil treatment (symbol M)
# Procedure, shortened: (§5)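 Seeds were sown in sterilized diluvial soil, covered with about 1.5 cm of soil, and the soil surface was sprayed with a water-diluted emulsion of the compound at a predetermined rate. Plants grew in a greenhouse at 25° C. to 30° C.; effects were scored visually 3 weeks after application.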
# Scirpus juncoides = assay: Test Example 2: herbicidal activity, application during weed generation in submerged conditions (symbol B); settings: Table 23, grade 0-5 by criteria of Test Example 1
# Procedure, shortened: as §1
# Monochoria vaginalis [4] = assay: Test Example 1: herbicidal activity, application before weed generation in submerged conditions (symbol C)
# Procedure, shortened: (§6)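 Greenhouse growth at 25–30 °C lasted 3 weeks after treatment, when each weed was graded 0–5 by herbicidal ratio. Treatment was a diluted emulsion applied to the water surface of 4 cm-submerged alluvial soil on the sowing day.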
# corn = assay: Test Example 4: effect on crop by soil treatment (symbol c)
# Procedure, shortened: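 Diluvial soil (sterilized) in boxes; seeds placed spot-wise alongside weed species; ~1.5 cm covering soil. Greenhouse, 25–30° C.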
# Amaranthus retroflexus = assay: Test Example 5: herbicidal effect by foliage application, plastic box (symbol N); settings: 3 weeks after application
# Procedure, shortened: as §4
# [5] = tested on: Echinochloa oryzacola Vasing.; assay: Test Example 1: herbicidal activity, application before weed generation in submerged conditions (symbol A)
# Procedure, shortened: as §6
# beet [6] = assay: Test Example 4: effect on crop by soil treatment (symbol f)
# Procedure, shortened: as §3
# Galium spurium = assay: Test Example 4: herbicidal effect by soil treatment (symbol Q)
# Source text: Herbicidal Effect Test by Soil Treatment
# Sterilized diluvial soil was placed in a plastic box having a length of 21 cm, a width of 13 cm, and a depth of 7 cm. Each of the seeds of Digitaria ciliaris, Setaria viridis, Echinochloa crus-galli var. crus-galli, Avena fatua, Alopecurus myosuroides, Lolium multiflorum Lam., Apera spica-venti, Abutilon theophrasti, Amaranthus retroflexus, Chenopodium album, Stellaria media, Galium spurium, Veronica persica, corn, soybean, rice, wheat, beet, and rapeseed was sowed in a spot-like manner and was covered with the soil of a thickness of about 1.5 cm. Subsequently, the emulsion agent of the compound present invention prepared in accordance with Formulation Example 2 was diluted with water so as to be a predetermined herbicide amount and the diluted emulsion agent was uniformly applied to the surface of the soil with a small-size spray. The plastic box was placed in a greenhouse of 25° C. to 30° C. to grow plant. 3 weeks later from the herbicide application, the effect to each plant was investigated in accordance with the criteria of Test Example 1.
# Setaria viridis = assay: Test Example 4: herbicidal effect by soil treatment (symbol G)
# Procedure, shortened: as §5
# [7] = application herbicide amount 192 g/ha
# [8] = application herbicide amount 320 g/ha
compound,measurement,setting,value
CON=C(C)CC1CC(OC(=O)C2CCCO2)=C(c2c(C)cc(C)cc2C)C1=O (stereo not shown) [1-076],"Herbicidal effect grade, C: Monochoria vaginalis",Monochoria vaginalis [1]; [7],0 (Herbicidal ratio of 5% or lower (almost no effect))
same,"f: beet, effect on crop (criteria 0-5)",beet [2]; 192 g/ha,0 (Herbicidal ratio of 5% or lower (almost no effect))
same,"e: wheat, effect grade on crop",wheat; 192 g/ha,4 (Herbicidal ratio of 70% or higher and lower than 90%)
same,"J: Alopecurus myosuroides, herbicidal effect (criteria 0-5)",Alopecurus myosuroides; 192 g/ha,5 (Herbicidal ratio of 90% or more (almost completely withered))
same,"Herbicidal effect grade, A: Echinochloa oryzacola Vasing.",[3]; [7],5 (Herbicidal ratio of 90% or more (almost completely withered))
same,"b: directly sowed rice plant, effect on crop (criteria 0-5)",rice plant; 192 g/ha,5 (Herbicidal ratio of 90% or more (almost completely withered))
same,"K: Lolium multiflorum Lam., herbicidal effect (criteria 0-5)",Lolium multiflorum Lam.; 192 g/ha,5 (Herbicidal ratio of 90% or more (almost completely withered))
same,"M: Abutilon theophrasti, herbicidal effect grade",Abutilon theophrasti; 192 g/ha,4 (Herbicidal ratio of 70% or higher and lower than 90%)
same,"Herbicidal effect grade, B: Scirpus juncoides",Scirpus juncoides; [7],4 (Herbicidal ratio of 70% or higher and lower than 90%)
same,"Herbicidal effect grade, C: Monochoria vaginalis",Monochoria vaginalis [4]; [7],0 (Herbicidal ratio of 5% or lower (almost no effect))
same,"c: corn, effect grade on crop",corn; 192 g/ha,2 (Herbicidal ratio of 20% or higher and lower than 40%)
same,"N: Amaranthus retroflexus, herbicidal effect (criteria 0-5)",Amaranthus retroflexus; 192 g/ha,0 (Herbicidal ratio of 5% or lower (almost no effect))
same,"Herbicidal effect grade, A: Echinochloa oryzacola Vasing.",[5]; [7],4 (Herbicidal ratio of 70% or higher and lower than 90%)
same,"f: beet, effect grade on crop",beet [6]; 192 g/ha,0 (Herbicidal ratio of 5% or lower (almost no effect))
same,"Q: Galium spurium, herbicidal effect grade",Galium spurium; 192 g/ha,0 (Herbicidal ratio of 5% or lower (almost no effect))
same,"G: Setaria viridis, herbicidal effect grade",Setaria viridis; 192 g/ha,5 (Herbicidal ratio of 90% or more (almost completely withered))
CON=C(C)CC1CC(OC(=O)c2cc(C)on2)=C(c2c(C)cc(C)cc2C)C1=O (stereo not shown) [1-100],"Herbicidal effect grade, C: Monochoria vaginalis",Monochoria vaginalis [1]; [8],3 (Herbicidal ratio of 40% or higher and lower than 70%)
same,"f: beet, effect on crop (criteria 0-5)",beet [2]; 320 g/ha,0 (Herbicidal ratio of 5% or lower (almost no effect))
same,"e: wheat, effect grade on crop",wheat; 320 g/ha,5 (Herbicidal ratio of 90% or more (almost completely withered))
same,"J: Alopecurus myosuroides, herbicidal effect (criteria 0-5)",Alopecurus myosuroides; 320 g/ha,5 (Herbicidal ratio of 90% or more (almost completely withered))
same,"Herbicidal effect grade, A: Echinochloa oryzacola Vasing.",[3]; [8],5 (Herbicidal ratio of 90% or more (almost completely withered))
same,"b: directly sowed rice plant, effect on crop (criteria 0-5)",rice plant; 320 g/ha,5 (Herbicidal ratio of 90% or more (almost completely withered))
same,"K: Lolium multiflorum Lam., herbicidal effect (criteria 0-5)",Lolium multiflorum Lam.; 320 g/ha,5 (Herbicidal ratio of 90% or more (almost completely withered))
same,"M: Abutilon theophrasti, herbicidal effect grade",Abutilon theophrasti; 320 g/ha,4 (Herbicidal ratio of 70% or higher and lower than 90%)
same,"Herbicidal effect grade, B: Scirpus juncoides",Scirpus juncoides; [8],5 (Herbicidal ratio of 90% or more (almost completely withered))
same,"Herbicidal effect grade, C: Monochoria vaginalis",Monochoria vaginalis [4]; [8],3 (Herbicidal ratio of 40% or higher and lower than 70%)
same,"c: corn, effect grade on crop",corn; 320 g/ha,5 (Herbicidal ratio of 90% or more (almost completely withered))
same,"N: Amaranthus retroflexus, herbicidal effect (criteria 0-5)",Amaranthus retroflexus; 320 g/ha,0 (Herbicidal ratio of 5% or lower (almost no effect))
same,"Herbicidal effect grade, A: Echinochloa oryzacola Vasing.",[5]; [8],5 (Herbicidal ratio of 90% or more (almost completely withered))
same,"f: beet, effect grade on crop",beet [6]; 320 g/ha,0 (Herbicidal ratio of 5% or lower (almost no effect))
same,"Q: Galium spurium, herbicidal effect grade",Galium spurium; 320 g/ha,0 (Herbicidal ratio of 5% or lower (almost no effect))
same,"G: Setaria viridis, herbicidal effect grade",Setaria viridis; 320 g/ha,5 (Herbicidal ratio of 90% or more (almost completely withered))
CON=C(CC1CC(O)=C(c2c(C)cc(C)cc2C)C1=O)C(F)(F)F (stereo not shown) [1-097],"Herbicidal effect grade, C: Monochoria vaginalis",Monochoria vaginalis [1]; [8],0 (Herbicidal ratio of 5% or lower (almost no effect))
same,"e: wheat, effect grade on crop",wheat; 320 g/ha,0 (Herbicidal ratio of 5% or lower (almost no effect))
same,"J: Alopecurus myosuroides, herbicidal effect (criteria 0-5)",Alopecurus myosuroides; 320 g/ha,5 (Herbicidal ratio of 90% or more (almost completely withered))
same,"Herbicidal effect grade, A: Echinochloa oryzacola Vasing.",[3]; [8],1 (Herbicidal ratio of 5% or higher and lower than 20%)
same,"b: directly sowed rice plant, effect on crop (criteria 0-5)",rice plant; 320 g/ha,5 (Herbicidal ratio of 90% or more (almost completely withered))
same,"K: Lolium multiflorum Lam., herbicidal effect (criteria 0-5)",Lolium multiflorum Lam.; 320 g/ha,5 (Herbicidal ratio of 90% or more (almost completely withered))
same,"M: Abutilon theophrasti, herbicidal effect grade",Abutilon theophrasti; 320 g/ha,0 (Herbicidal ratio of 5% or lower (almost no effect))
same,"Herbicidal effect grade, B: Scirpus juncoides",Scirpus juncoides; [8],0 (Herbicidal ratio of 5% or lower (almost no effect))
same,"Herbicidal effect grade, C: Monochoria vaginalis",Monochoria vaginalis [4]; [8],0 (Herbicidal ratio of 5% or lower (almost no effect))
same,"c: corn, effect grade on crop",corn; 320 g/ha,1 (Herbicidal ratio of 5% or higher and lower than 20%)
same,"Herbicidal effect grade, A: Echinochloa oryzacola Vasing.",[5]; [8],3 (Herbicidal ratio of 40% or higher and lower than 70%)
same,"f: beet, effect grade on crop",beet [6]; 320 g/ha,0 (Herbicidal ratio of 5% or lower (almost no effect))
same,"Q: Galium spurium, herbicidal effect grade",Galium spurium; 320 g/ha,0 (Herbicidal ratio of 5% or lower (almost no effect))
same,"G: Setaria viridis, herbicidal effect grade",Setaria viridis; 320 g/ha,2 (Herbicidal ratio of 20% or higher and lower than 40%)
CC#Cc1cc(C)c(C2=C(O)CC(CC(=NOCCOC)C3CC3)C2=O)c(C)c1 (stereo not shown) [9-021],"f: beet, effect on crop grade",beet [2]; 320 g/ha,0 (Herbicidal ratio of 5% or lower (almost no effect))
same,"Effect on crop grade, e: wheat",wheat; [8],3 (Herbicidal ratio of 40% or higher and lower than 70%)
same,"J: Alopecurus myosuroides, herbicidal effect grade",Alopecurus myosuroides; 320 g/ha,5 (Herbicidal ratio of 90% or more (almost completely withered))
same,"Herbicidal effect grade, A: Echinochloa oryzacola Vasing.",[3]; [8],5 (Herbicidal ratio of 90% or more (almost completely withered))
same,"b: directly sowed rice plant, effect on crop grade",rice plant; 320 g/ha,5 (Herbicidal ratio of 90% or more (almost completely withered))
same,"K: Lolium multiflorum Lam., herbicidal effect grade",Lolium multiflorum Lam.; 320 g/ha,5 (Herbicidal ratio of 90% or more (almost completely withered))
same,"Herbicidal effect grade, M: Abutilon theophrasti",Abutilon theophrasti; [8],1 (Herbicidal ratio of 5% or higher and lower than 20%)
same,"Herbicidal effect grade, B: Scirpus juncoides",Scirpus juncoides; [8],5 (Herbicidal ratio of 90% or more (almost completely withered))
same,C (Monochoria vaginalis) herbicidal effect grade,Monochoria vaginalis [4]; [8],2 (Herbicidal ratio of 20% or higher and lower than 40%)
same,"Effect on crop grade, c: corn",corn; [8],3 (Herbicidal ratio of 40% or higher and lower than 70%)
same,"N: Amaranthus retroflexus, herbicidal effect grade",Amaranthus retroflexus; 320 g/ha,2 (Herbicidal ratio of 20% or higher and lower than 40%)
same,A (Echinochloa oryzacola Vasing.) herbicidal effect grade,[5]; [8],5 (Herbicidal ratio of 90% or more (almost completely withered))
same,"Effect on crop grade, f: beet",beet [6]; [8],0 (Herbicidal ratio of 5% or lower (almost no effect))
same,"Herbicidal effect grade, Q: Galium spurium",Galium spurium; [8],0 (Herbicidal ratio of 5% or lower (almost no effect))
same,"Herbicidal effect grade, G: Setaria viridis",Setaria viridis; [8],5 (Herbicidal ratio of 90% or more (almost completely withered))
